Among the data in patent US12594276B2, “Inhibitors of human immunodeficiency virus replication” (ViiV Healthcare UK (No.5) Limited, priority 2024, dated 2026) are CC50 and EC50 values, retold here.

pEC50: −log10 of the molar value.

Data set [1] in a line: Compound cytotoxicity, XTT-based colorimetric assay. Conditions: human; uninfected MT2 cells, day 4, XTT; read-out: CC50. In kind it is cell-based. The procedure, abridged:
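CC50 derived from XTT colorimetric signal measured on day 4 in MT2 cells that were not infected. All other steps followed the antiviral assay protocol.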
A general note: Tetrazolium dyes change colour on reduction, which living cells bring about.

Data set [2] relates to recombinant NL4-3 virus (nef section replaced with Renilla luciferase gene) in MT-2 cells. As to the kind of experiment: HIV cell culture assay (antiviral activity, luciferase readout). The settings on record: Renilla, NL43, MT-2 cells infected for 4-5 days with recombinant NL4-3 Renilla luciferase virus. The class given is cell-based. The method in brief:
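Antiviral EC50 derived from luciferase signal using the exponential median effect equation. Infection of MT-2 cells ran 4-5 days alongside serial dilutions of compound, with virus generated by proviral clone transfection of 293T cells.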

As for `COCCCn1nc(NS(C)(=O)=O)c2c(Cl)ccc(-n3c([C@H](Cc4cc(F)cc(F)c4)NC(=O)Cn4nc(C(F)F)c5c4C(F)(F)[C@@H]4C[C@H]54)nc4nc(C5CCC(F)(F)CC5)cc(NCCC5CCCCC5)c4c3=O)c21` (atropisomer, axis not shown; (P)) [Example 549, N-[(1S)-1-[(3P)-3-[4-chloro-3-methanesulfonamido-1-(3-methoxypropyl)-1H-indazol-7-yl]-5-[(2-cyclohexylethyl)amino]-7-(4,4-difluorocyclohexyl)-4-oxo-3H,4H-pyrido[2,3-d]pyrimidin-2-yl]-2-(3,5-difluorophenyl)ethyl]-2-[(2S,4R)-9-(difluoromethyl)-5,5-difluoro-7,8-diazatricyclo[4.3.0.0^2,^4]nona-1(6),8-dien-7-yl]acetamide], the CC50 at 4 days in data set [1] is > 20 nM. In data set [2], the pEC50 is 9.59.
In the same order, the values of `COCCCn1nc(NS(C)(=O)=O)c2c(Cl)ccc(-n3c([C@H](Cc4cc(F)cc(F)c4)NC(=O)Cn4nc(C(F)F)c5c4C(F)(F)[C@@H]4C[C@H]54)nc4nc(C5CCC(F)(F)CC5)cc(NCCOC)c4c3=O)c21` (atropisomer, axis not shown; (P)) [Example 135, N-[(1S)-1-[(3P)-3-[4-chloro-3-methanesulfonamido-1-(3-methoxypropyl)-1H-indazol-7-yl]-7-(4,4-difluorocyclohexyl)-5-[(2-methoxyethyl)amino]-4-oxo-3H,4H-pyrido[2,3-d]pyrimidin-2-yl]-2-(3,5-difluorophenyl)ethyl]-2-[(2S,4R)-9-(difluoromethyl)-5,5-difluoro-7,8-diazatricyclo[4.3.0.0^2,4]nona-1(6),8-dien-7-yl]acetamide] are > 50 nM and 10.89.
Consider `Cc1cc(C2(F)CCC(F)(F)CC2)nc2nc([C@H](Cc3cc(F)cc(F)c3)NC(=O)Cn3nc(C4CC4)c4c3C[C@@H]3C[C@H]43)n(-c3ccc(Cl)c4c(NS(C)(=O)=O)nn(C[C@@H](C)N5C[C@H](F)C[C@H](F)C5)c34)c(=O)c12` (relative stereo) [Example 702, N-[(1S)-1-[(3P)-3-{4-chloro-1-[(2R)-2-[(3R,5S)-3,5-difluoropiperidin-1-yl]propyl]-3-methanesulfonamido-1H-indazol-7-yl}-5-methyl-4-oxo-7-(1,4,4-trifluorocyclohexyl)-3H,4H-pyrido[2,3-d]pyrimidin-2-yl]-2-(3,5-difluorophenyl)ethyl]-2-[(2R*,4R*)-9-cyclopropyl-7,8-diazatricyclo[4.3.0.0^2,^4]nona-1(6),8-dien-7-yl]acetamide], for which, in data set [1], the CC50 at 4 days is > 20 nM. The negative logarithm of the EC50 (pEC50) in data set [2] was 10.80.
Regarding `Cc1cc(C2CCC(F)(F)CC2)nc2nc([C@H](Cc3cc(F)cc(F)c3)NC(=O)Cn3nc(C4CC4)c4c3C[C@@H]3C[C@H]43)n(-c3ccc(Cl)c4c(NS(C)(=O)=O)nn([C@H](C)CN5C[C@H](F)C[C@H](F)C5)c34)c(=O)c12` (relative stereo) [Example 732, N-[(1S)-1-[(3P)-3-{4-chloro-1-[(2R)-1-[(3R,5S)-3,5-difluoropiperidin-1-yl]propan-2-yl]-3-methanesulfonamido-1H-indazol-7-yl}-7-(4,4-difluorocyclohexyl)-5-methyl-4-oxo-3H,4H-pyrido[2,3-d]pyrimidin-2-yl]-2-(3,5-difluorophenyl)ethyl]-2-[(2R*,4R*)-9-cyclopropyl-7,8-diazatricyclo[4.3.0.0^2,^4]nona-1(6),8-dien-7-yl]acetamide], the CC50 at 4 days in data set [1] is > 20 nM. The negative logarithm of the EC50 (pEC50) in data set [2] was 10.89.
With `Cc1cc(C2CCC(F)(F)CC2)nc2nc([C@H](Cc3cc(F)cc(F)c3)NC(=O)Cn3nc(C(F)F)c4c3C(F)(F)[C@@H]3C[C@H]43)n(-c3ccc(Cl)c4c(NS(C)(=O)=O)nn(CCN5C[C@@H]6C[C@H]5CC6(F)F)c34)c(=O)c12` (atropisomer, axis not shown; (P)) [Example 310, N-[(1S)-1-[(3P)-3-(4-chloro-1-{2-[(1S,4S)-5,5-difluoro-2-azabicyclo[2.2.1]heptan-2-yl]ethyl}-3-methanesulfonamido-1H-indazol-7-yl)-7-(4,4-difluorocyclohexyl)-5-methyl-4-oxo-3H,4H-pyrido[2,3-d]pyrimidin-2-yl]-2-(3,5-difluorophenyl)ethyl]-2-[(2S,4R)-9-(difluoromethyl)-5,5-difluoro-7,8-diazatricyclo[4.3.0.0^2,^4]nona-1(6),8-dien-7-yl]acetamide], the CC50 at 4 days in data set [1] is > 50 nM. In addition, the negative logarithm of the EC50 (pEC50) in data set [2] was 10.72.
For `Cc1cc(C2(F)CCC(F)(F)CC2)nc2nc([C@H](Cc3cc(F)cc(F)c3)NC(=O)Cn3nc(C4CC4)c4c3C[C@@H]3C[C@H]43)n(-c3ccc(Cl)c4c(NS(C)(=O)=O)nn(CCN5C[C@H]6CC[C@@H](C5)O6)c34)c(=O)c12` (atropisomer, axis not shown; (P)) [Example 592, N-[(1S)-1-[(3P)-3-(4-chloro-3-methanesulfonamido-1-{2-[(1R,5S)-8-oxa-3-azabicyclo[3.2.1]octan-3-yl]ethyl}-1H-indazol-7-yl)-5-methyl-4-oxo-7-(1,4,4-trifluorocyclohexyl)-3H,4H-pyrido[2,3-d]pyrimidin-2-yl]-2-(3,5-difluorophenyl)ethyl]-2-[(2S,4S)-9-cyclopropyl-7,8-diazatricyclo[4.3.0.0^2,^4]nona-1(6),8-dien-7-yl]acetamide], in data set [1], the CC50 at 4 days was > 20 nM. Also, the pEC50 in data set [2] was 11.22.
As to `CC1(F)CCN(CCn2nc(NS(C)(=O)=O)c3c(Cl)ccc(-n4c([C@H](Cc5cc(F)cc(F)c5)NC(=O)Cn5nc(C(F)F)c6c5C(F)(F)[C@@H]5C[C@H]65)nc5nc(C6CCC(F)(F)CC6)ccc5c4=O)c32)C1` (stereo partly drawn) [Example 211, N-[(1S)-1-[(3P)-3-{4-chloro-1-[2-(3-fluoro-3-methylpyrrolidin-1-yl)ethyl]-3-methanesulfonamido-1H-indazol-7-yl}-7-(4,4-difluorocyclohexyl)-4-oxo-3H,4H-pyrido[2,3-d]pyrimidin-2-yl]-2-(3,5-difluorophenyl)ethyl]-2-[(2S,4R)-9-(difluoromethyl)-5,5-difluoro-7,8-diazatricyclo[4.3.0.0^2,^4]nona-1(6),8-dien-7-yl]acetamide], the CC50 at 4 days in data set [1] is > 50 nM. For the same molecule, the pEC50 in data set [2] is 10.92.
As for `Cc1cc(C2(F)CCC(F)(F)CC2)nc2nc([C@H](Cc3cc(F)cc(F)c3)NC(=O)Cn3nc(C4CC4)c4c3C[C@@H]3C[C@H]43)n(-c3ccc(Cl)c4c(NS(C)(=O)=O)nn(CCc5cccnc5)c34)c(=O)c12` (relative stereo) [Example 741, N-[(1S)-1-[(3P)-3-{4-chloro-3-methanesulfonamido-1-[2-(pyridin-3-yl)ethyl]-1H-indazol-7-yl}-5-methyl-4-oxo-7-(1,4,4-trifluorocyclohexyl)-3H,4H-pyrido[2,3-d]pyrimidin-2-yl]-2-(3,5-difluorophenyl)ethyl]-2-[(2R*,4R*)-9-cyclopropyl-7,8-diazatricyclo[4.3.0.0^2,^4]nona-1(6),8-dien-7-yl]acetamide], the cytotoxic concentration (CC50) at 4 days in data set [1] was > 20 nM. Also, the pEC50 in data set [2] is 10.40.
The corresponding values for `Cc1cc(C2(F)CCC(F)(F)CC2)nc2nc([C@H](Cc3cc(F)cc(F)c3)NC(=O)Cn3nc(C4CC4)c4c3C[C@@H]3C[C@H]43)n(-c3ccc(Cl)c4c(NS(C)(=O)=O)nn(CCN5CCCC5=O)c34)c(=O)c12` (relative stereo) [Example 738, N-[(1S)-1-[(3P)-3-{4-chloro-3-methanesulfonamido-1-[2-(2-oxopyrrolidin-1-yl)ethyl]-1H-indazol-7-yl}-5-methyl-4-oxo-7-(1,4,4-trifluorocyclohexyl)-3H,4H-pyrido[2,3-d]pyrimidin-2-yl]-2-(3,5-difluorophenyl)ethyl]-2-[(2R*,4R*)-9-cyclopropyl-7,8-diazatricyclo[4.3.0.0^2,^4]nona-1(6),8-dien-7-yl]acetamide] are > 20 nM and 10.37.
In the case of `CS(=O)(=O)Nc1nn(CCN2CCOC3(CC3)C2)c2c(-n3c([C@H](Cc4cc(F)cc(F)c4)NC(=O)Cn4nc(C(F)F)c5c4C(F)(F)[C@@H]4C[C@H]54)nc4nc(C5CCC(F)(F)CC5)ccc4c3=O)ccc(Cl)c12` (atropisomer, axis not shown; (P)) [Example 176, N-[(1S)-1-[(3P)-3-[4-chloro-3-methanesulfonamido-1-(2-{4-oxa-7-azaspiro[2.5]octan-7-yl}ethyl)-1H-indazol-7-yl]-7-(4,4-difluorocyclohexyl)-4-oxo-3H,4H-pyrido[2,3-d]pyrimidin-2-yl]-2-(3,5-difluorophenyl)ethyl]-2-[(2S,4R)-9-(difluoromethyl)-5,5-difluoro-7,8-diazatricyclo[4.3.0.0^2,^4]nona-1(6),8-dien-7-yl]acetamide], in data set [1], the CC50 at 4 days was > 50 nM. The negative-log EC50 (pEC50) in data set [2] is 10.74.
Take `Cc1cc(C2CCC(F)(F)CC2)nc2nc([C@H](Cc3cc(F)cc(F)c3)NC(=O)Cn3nc(C4CC4)c4c3C[C@@H]3C[C@H]43)n(-c3ccc(Cl)c4c(NS(C)(=O)=O)nn(CCN5CCOCC5)c34)c(=O)c12` (atropisomer, axis not shown; (P)) [Example 114, N-[(1S)-1-[(3P)-3-{4-chloro-3-methanesulfonamido-1-[2-(morpholin-4-yl)ethyl]-1H-indazol-7-yl}-7-(4,4-difluorocyclohexyl)-5-methyl-4-oxo-3H,4H-pyrido[2,3-d]pyrimidin-2-yl]-2-(3,5-difluorophenyl)ethyl]-2-[(2S,4S)-9-cyclopropyl-7,8-diazatricyclo[4.3.0.0^2,^4]nona-1(6),8-dien-7-yl]acetamide]: in data set [1], the CC50 at 4 days is > 50 nM. Moreover, the pEC50 in data set [2] is 10.89.

As usually defined, the CC50 is the concentration at which the toxic effect on the cells reaches its halfway point. The pEC50 is −log10 of the EC50, conventionally taken in molar units.
